Test results: paper PMC4604124, “In Vitro Characterization of the Pharmacological Properties of the Anti-Cancer Chelator, Bp4eT, and Its Phase I Metabolites” (PLoS ONE, 2015)
Values joined by “and” are separate entries in the source; they are usually repeats but may differ in a detail not shown here. Identical values can stand only once.

Legend:
[1] = Ascorbate oxidation assay (redox activity of iron complexes); type: biochemical; details: sheet IBE 3;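 for Change of absorbance, odečet 0 (time 0 subtracted), čas 10, průměr: IBE 3 means excess free chelator over 10 µM FeCl3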;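 for Change of absorbance, odečet 0 (time 0 subtracted), čas 10: IBE 3 means excess free chelator over 10 µM FeCl3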;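 for Change of absorbance, odečet 0 (time 0 subtracted), čas 20, průměr: 100 µM ascorbate with 10 µM FeCl3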;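 for Change of absorbance, odečet 0 (time 0 subtracted), čas 20: 100 µM ascorbate with 10 µM FeCl3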;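 for Change of absorbance, odečet 0 (time 0 subtracted), čas 30, průměr: 100 µM ascorbate with 10 µM FeCl3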;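 for Change of absorbance, odečet 0 (time 0 subtracted), čas 30: 100 µM ascorbate with 10 µM FeCl3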
caspase 8 = experiment: Caspase activity, luminescent kit, caspase 8; type: cell-based, human; details: for kaspáza 8, raw signal / kaspáza 8, signal / viabilita: individual experiments by date; for kaspáza 8, raw signal, průměry / kaspáza 8, % kontroly / kaspáza 8, signal / viabilita, průměry: mean; for kaspáza 8, % kontroly / kaspáza 8, signal / viabilita / kaspáza 8, signal / viabilita, průměry: normalised to viability
Description: To assess the effect of the compounds on caspase activity, MCF-7 cells were incubated with 100 nM Bp4eT or its metabolites for 3, 24 or 72 h/37°C in 96-well plates, as described above. The cells were then lysed by adding 100 μL of cold lysis buffer (100 mM HEPES, 10 mM CHAPS, 10 mM D-L-dithiothreitol, pH 7.4) to 100 μL of medium in each well. Lysates were immediately frozen at -80°C. Thawed lysates were used to assess caspase activity using luminescent kits for caspases 3/7, 8 and 9 (Promega, Madison, WI, USA). The luminescence was measured using the Tecan Infinite 200M plate reader. Caspase activity in the experimental groups was corrected according to the cellular viability of each group and expressed as a percentage of activity of the untreated control (100%).

[2] = system: HCT116 human colorectal carcinoma cells; experiment: MTT cytotoxicity assay, HCT116 cells; type: cell-based; details: for IC50: MTT
Description: For cytotoxicity experiments, cancer cells were seeded at a density of 5,000 (MCF-7), 10,000 (HL-60) or 2,000 cells/well (HCT116 and A549) in 96-well plates (TPP) for 24 h/37°C prior to the addition of examined agents. The non-cancerous cells, 3T3 and H9c2 cells, were cultured for 24 h/37°C in 96-well plates at a density of 10,000 cells/well, the medium was then changed to serum- and pyruvate-free DMEM (Sigma-Aldrich) and incubated with the cells for another 24 h/37°C. The cytotoxic effects of Bp4eT and its metabolites were studied at different concentrations after a 72 h/37°C incubation. In order to aid the dissolution of the lipophilic ligands, 0.1% dimethyl sulfoxide (v/v) (DMSO; Sigma-Aldrich) was present in the culture medium of all groups. At this concentration, DMSO had no effect on cellular proliferation or viability.
The viability of cells were determined using an MTT assay (Sigma-Aldrich) according to previously established methods. The optical density of soluble MTT was measured at λ = 570 nm, subtracting the λ = 690 nm background using a Tecan Infinite 200M plate reader (Tecan Group, Männedorf, Switzerland). The viability or proliferation of experimental groups was expressed as a percentage of the untreated controls (100%).
SigmaStat for Windows 3.5 (Systat Software, San Jose, CA, USA) statistical software package was utilized to analyze results. The data are expressed as the mean ± SD of a given number of experiments. Statistical significance was determined using a one-way ANOVA with a Bonferroni post-hoc test or Student’s t-test. The results were considered to be statistically significant when p < 0.05. The IC50 values were calculated using CalcuSyn 2.0 software (Biosoft, Cambridge, UK). Cell cycle analysis was evaluated using MultiCycle AV Software (Phoenix Flow Systems, San Diego, CA, USA).

[3] = Viability (viabilita) used to normalise caspase activity; type: cell-based, human; details: human, MCF-7 cells, kontrola = 100;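 note: compound tested at 100 nM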
From the text: Supplement pone.0139929.s002.zip/caspases activity.xlsx, sheet "results_viability"

CCN=CNN=C(c1ccccc1)c1ccccn1 [Bp4eA, N ^3-ethyl-N ^1-[phenyl(pyridin-2-yl)methylene]formamidrazone]
Change of absorbance, odečet 0 (time 0 subtracted), čas 10, průměr ([1]; time 10 minus time 0, mean (průměr)): -0.03537
Change of absorbance, odečet 0 (time 0 subtracted), čas 10 ([1]; time 10 minus time 0, single replicates): -0.03156 and -0.03676 and -0.03266 and -0.04073 and -0.03893 and -0.03883 and -0.03458 and -0.03388 and -0.03038
Change of absorbance, odečet 0 (time 0 subtracted), čas 20, průměr ([1]; time 20 minus time 0, mean (průměr)): -0.06757
Change of absorbance, odečet 0 (time 0 subtracted), čas 20 ([1]; time 20 minus time 0, single replicates): -0.06509 and -0.07099 and -0.06549 and -0.07376 and -0.07016 and -0.07036 and -0.06559 and -0.06109
Change of absorbance, odečet 0 (time 0 subtracted), čas 30, průměr ([1]; time 30 minus time 0, mean (průměr)): -0.0973
Change of absorbance, odečet 0 (time 0 subtracted), čas 30 ([1]; time 30 minus time 0, single replicates): -0.09296 and -0.09586 and -0.09136 and -0.1043 and -0.1007 and -0.0986 and -0.1006 and -0.09796 and -0.09336
kaspáza 8, raw signal (caspase 8; 3 hodiny): 2039 and 1218.5 and 1153 and 868.5
kaspáza 8, raw signal, průměry (caspase 8; 3 hodiny): 1319.75
kaspáza 8, % kontroly (caspase 8; 3 hodiny): 98.01 % kontroly
kaspáza 8, signal / viabilita (caspase 8; 3 hodiny): 21.0632 and 12.5873 and 11.9107 and 8.972
kaspáza 8, signal / viabilita, průměry (caspase 8; 3 hodiny): 13.6332
kaspáza 8, raw signal (caspase 8; 24 hodin): 1556 and 1108.5 and 1675.5 and 1199
kaspáza 8, raw signal, průměry (caspase 8; 24 hodin): 1384.75
kaspáza 8, % kontroly (caspase 8; 24 hodin): 91.04 % kontroly
kaspáza 8, signal / viabilita (caspase 8; 24 hodin): 16.2773 and 11.596 and 17.5273 and 12.5427
kaspáza 8, signal / viabilita, průměry (caspase 8; 24 hodin): 14.4858
kaspáza 8, raw signal (caspase 8; 72 hodin): 6752 and 5806 and 7204 and 6996
kaspáza 8, raw signal, průměry (caspase 8; 72 hodin): 6689.5
kaspáza 8, % kontroly (caspase 8; 72 hodin): 103.53 % kontroly
kaspáza 8, signal / viabilita (caspase 8; 72 hodin): 72.5709 and 62.4033 and 77.4291 and 75.1935
kaspáza 8, signal / viabilita, průměry (caspase 8; 72 hodin): 71.8992
Therapeutic index, IC50 non-cancerous cells / IC50 neoplastic cells ([2]; 3T3/HCT116): 9.2
Therapeutic index, IC50 non-cancerous cells / IC50 neoplastic cells ([2]; H9c2/HCT116): 3.7
MTT, relative to control (0 = 100) ([2]; HCT116, 2 000 b/j, 1 μM, průměr (mean), sheet Bp4eA): 97.58
MTT, relative to control (0 = 100) ([2]; HCT116, 2 000 b/j, 1 μM, single experiment (date), sheet Bp4eA): 99.1509 and 100.455 and 96.4816 and 94.6996 and 96.3825 and 98.3223
MTT, relative to control (0 = 100) ([2]; HCT116, 2 000 b/j, 3 μM, průměr (mean), sheet Bp4eA): 97.04
MTT, relative to control (0 = 100) ([2]; HCT116, 2 000 b/j, 3 μM, single experiment (date), sheet Bp4eA): 97.9686 and 98.7085 and 92.1521 and 93.3267 and 100.675 and 99.4316
MTT, relative to control (0 = 100) ([2]; HCT116, 2 000 b/j, 10 μM, průměr (mean), sheet Bp4eA): 94.04
MTT, relative to control (0 = 100) ([2]; HCT116, 2 000 b/j, 10 μM, single experiment (date), sheet Bp4eA): 94.463 and 96.9011 and 92.7169 and 93.3863 and 93.3144 and 93.4876
MTT, relative to control (0 = 100) ([2]; HCT116, 2 000 b/j, 30 μM, průměr (mean), sheet Bp4eA): 89.95
MTT, relative to control (0 = 100) ([2]; HCT116, 2 000 b/j, 30 μM, single experiment (date), sheet Bp4eA): 90.1675 and 87.4242 and 84.0067 and 87.0754 and 95.7934 and 95.2315
MTT, relative to control (0 = 100) ([2]; HCT116, 2 000 b/j, 100 μM, průměr (mean), sheet Bp4eA): 58.40
MTT, relative to control (0 = 100) ([2]; HCT116, 2 000 b/j, 100 μM, single experiment (date), sheet Bp4eA): 42.8559 and 58.6495 and 64.6288 and 67.4584
MTT, relative to control (0 = 100) ([2]; HCT116, 2 000 b/j, 300 μM, průměr (mean), sheet Bp4eA): 9.79
MTT, relative to control (0 = 100) ([2]; HCT116, 2 000 b/j, 1000 μM, průměr (mean), sheet Bp4eA): 2.29
IC50 ([2]; HCT116, 2 000 b/j, single experiment (date), sheet Bp4eA): 115 µM and 125 µM (2×)
IC50 ([2]; Homo sapiens, HCT-116, 72 h, HCT116, 72 h/37°C, mean ± SD, n ≥ 4): 112 ± 20.9 µM
IC50 ([2]; Homo sapiens, HCT-116, HCT116, 2 000 b/j, průměr (mean), sheet Bp4eA): 112 µM
IC50 ([2]; Homo sapiens, HCT-116, HCT116, 2 000 b/j, single experiment (date), sheet Bp4eA): 80.9 µM
viability at 3 h, 100 nM ([3]; 3 hodiny): 96.8%
viability at 24 h, 100 nM ([3]; 24 hodin): 95.6%
viability at 72 h, 100 nM ([3]; 72 hodin): 93%
